In article PMC6825221, “In silico re-engineering of a neurotransmitter to activate KCNQ potassium channels in an isoform-specific manner” (Communications Biology, 2019):

Target: T1, KCNQ3*-R242A (Homo sapiens, UniProt O43525, A315T/R242A)
T1 sequence (O43525 1-872 R242A/A315T): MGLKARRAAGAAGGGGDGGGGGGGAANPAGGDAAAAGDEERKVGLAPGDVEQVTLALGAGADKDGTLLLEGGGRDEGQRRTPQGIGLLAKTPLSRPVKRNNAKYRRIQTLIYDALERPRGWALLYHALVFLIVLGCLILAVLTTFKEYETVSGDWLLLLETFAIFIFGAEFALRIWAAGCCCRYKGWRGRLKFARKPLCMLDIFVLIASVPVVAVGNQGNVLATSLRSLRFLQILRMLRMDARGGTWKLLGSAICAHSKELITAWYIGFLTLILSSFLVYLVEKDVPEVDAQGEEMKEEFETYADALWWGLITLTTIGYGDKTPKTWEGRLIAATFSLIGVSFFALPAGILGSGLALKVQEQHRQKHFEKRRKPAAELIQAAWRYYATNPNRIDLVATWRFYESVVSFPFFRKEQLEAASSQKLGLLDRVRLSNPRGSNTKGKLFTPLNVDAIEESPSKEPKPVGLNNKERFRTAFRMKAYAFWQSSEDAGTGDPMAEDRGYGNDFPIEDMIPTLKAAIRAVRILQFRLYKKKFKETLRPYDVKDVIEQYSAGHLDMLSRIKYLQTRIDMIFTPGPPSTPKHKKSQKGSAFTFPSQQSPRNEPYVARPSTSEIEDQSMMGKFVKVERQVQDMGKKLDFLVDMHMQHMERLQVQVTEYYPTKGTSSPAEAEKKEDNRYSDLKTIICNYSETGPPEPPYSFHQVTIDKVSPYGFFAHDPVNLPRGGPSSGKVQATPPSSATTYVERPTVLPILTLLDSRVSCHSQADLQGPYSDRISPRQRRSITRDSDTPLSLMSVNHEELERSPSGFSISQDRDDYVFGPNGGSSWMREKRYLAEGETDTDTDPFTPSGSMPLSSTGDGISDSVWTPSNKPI
Experiment: TEVC of homomeric KCNQ3*-R242A
Assay type: cell-based
Conditions: 100 µM
Description: We generated cRNA transcripts encoding human KCNQ1, KCNQ2, KCNQ3, KCNQ4, KCNQ5 or GLRA1 (NM_001146040) (GenScript, Piscataway, NJ, USA) by in vitro transcription using the T7 polymerase mMessage mMachine kit (Thermo Fisher Scientific), after vector linearization, from cDNA sub-cloned into plasmids incorporating Xenopus laevis β-globin 5′ and 3′ UTRs flanking the coding region to enhance translation and cRNA stability. We quantified cRNA by spectrophotometry. We generated mutant KCNQ2 and KCNQ3 cDNAs by site-directed mutagenesis using a QuikChange kit (Stratagene, San Diego, CA) and prepared the corresponding cRNAs as above. […]
We performed TEVC at room temperature using an OC-725C amplifier (Warner Instruments, Hamden, CT) and pClamp10 software (Molecular Devices, Sunnyvale, CA) 2–5 days after cRNA injection as described in the section above. […] Currents were recorded in response to voltage pulses between −120 or −80 mV and + 40 mV at 20 mV intervals from a holding potential of −80 mV, to yield current-voltage relationships, current magnitude, and for quantifying activation rate. We analyzed data using Clampfit (Molecular Devices) and Graphpad Prism software (GraphPad, San Diego, CA, USA); values are stated as mean ± SEM. […]

effect on nonfunctional KCNQ3*-R242A: awakened neither by 3FMSG nor retigabine
Structure (SMILES): CS(=O)(=O)N(CC(=O)O)c1cccc(F)c1 [3FMSG]
